What follows are molecules tested on Pfeiffer cells, lymphoma cells having EZH2 mutation (A677G) (assay: Proliferation inhibition of cells of hematologic malignancies (CCK-8, 11 days)). Conditions: 11 days culture, read-out: Cell proliferation inhibitory effect (IC50).
Assay type: cell-based
In short: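 Pfeiffer lymphoma cells (EZH2 A677G) in RPMI1640 with 10% FBS were seeded at 10,000 cells/well and exposed to test material for 11 days, with compound replaced every 3–4 days. Viability was read by CCK-8 absorbance at 450 nm, and IC50 was derived by non-linear regression curve fitting.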

Q: How did the IC50 turn out when `CCN1CCC(C2(C)Oc3c(-c4ccc(N5C[C@@H](C)O[C@@H](C)C5)nc4)cc(C(=O)NCc4c(SC)cc(C)[nH]c4=O)c(C)c3O2)CC1` (single isomer, unassigned) [Compound 50] was run?
A: ≥ 0.1 µM

Q: For `CSc1cc(C)[nH]c(=O)c1CNC(=O)c1cc(-c2ccc(N3C[C@@H](C)O[C@@H](C)C3)nc2)c2c(c1C)OC(C)(C1CCN(CCCC(F)(F)F)CC1)O2` (single isomer, unassigned) [Compound 58], which IC50 is on record?
A: ≥ 0.1 µM

Q: How did the IC50 turn out when `CCN1CCC(C2(C)Oc3c(-c4cnc(N(C)CC)nc4)cc(C(=O)NCc4c(SC)cc(C)[nH]c4=O)c(C)c3O2)CC1` (single isomer, unassigned) [Compound 84, 7-(2-(ethyl(methyl)amino)pyrimidin-5-yl)-2-(1-ethylpiperidin-4-yl)-2,4-dimethyl-N-((6-methyl-4-(methylthio)-2-oxo-1,2-dihydropyridin-3-yl)methyl)benzo[d][1,3]dioxole-5-carboxamide] was run?
A: ≥ 0.1 µM

Same assay, conditions: Homo sapiens, Pfeiffer, 264 h, 11 days culture, read-out: Cell proliferation inhibitory effect (IC50)

Q: For `CSc1cc(C)[nH]c(=O)c1CNC(=O)c1cc(-c2ccsc2)c2c(c1C)OC(C)([C@H]1CC[C@H](N(C)C)CC1)O2` (stereo partly drawn) [Compound 11, 2-(trans-4-(dimethylamino)cyclohexyl)-2,4-dimethyl-N-((6-methyl-4-(methylthio)-2-oxo-1,2-dihydropyridin-3-yl)methyl)-7-(thiophene-3-yl)benzo[d][1,3]dioxole-5-carboxamide], which IC50 is on record?
A: ≤ 0.01 µM

Q: `CSc1cc(C)[nH]c(=O)c1CNC(=O)c1cc(-c2ccc3c(ccn3C)c2)c2c(c1C)OC(C)([C@H]1CC[C@H](N(C)C)CC1)O2` (stereo partly drawn) [Compound 7, 2-(trans-4-(dimethylamino)cyclohexyl)-2,4-dimethyl-7-(1-methyl-1H-indol-5-yl)-N-((6-methyl-4-(methylthio)-2-oxo-1,2-dihydropyridin-3-yl)methyl)benzo[d][1,3]dioxole-5-carboxamide] was tested. Which IC50 did it give?
A: ≤ 0.01 µM

Q: With `COCCN(C)[C@H]1CC[C@H](C2(C)Oc3c(-c4ccc(N5CCC(F)(F)CC5)nc4)cc(C(=O)NCc4c(SC)cc(C)[nH]c4=O)c(C)c3O2)CC1` (stereo partly drawn) [Compound 27, 7-(6-(4,4-difluoropiperidin-1-yl)pyridin-3-yl)-2-(trans-4-((2-methoxyethyl)(methyl)amino)cyclohexyl)-2,4-dimethyl-N-((6-methyl-4-(methylthio)-2-oxo-1,2-dihydropyridin-3-yl)methyl)benzo[d][1,3]dioxole-5-carboxamide] as the molecule, how does the IC50 read?
A: ≤ 0.01 µM

Q: For `CCCOCCN(C)[C@H]1CC[C@H](C2(C)Oc3c(-c4ccc(N5C[C@@H](C)O[C@@H](C)C5)nc4)cc(C(=O)NCc4c(SC)cc(C)[nH]c4=O)c(C)c3O2)CC1` (stereo partly drawn) [Compound 30, 7-(6-((2S,6R)-2,6-dimethylmorpholino)pyridin-3-yl)-2,4-dimethyl-2-(trans-4-(methyl(2-propoxyethyl)amino)cyclohexyl)-N-((6-methyl-4-(methylthio)-2-oxo-1,2-dihydropyridin-3-yl)methyl)benzo[d][1,3]dioxole-5-carboxamide], which IC50 is on record?
A: ≤ 0.01 µM

Q: With `COCCN(C)[C@H]1CC[C@H](C2(C)Oc3c(-c4ccc(OC)nc4)cc(C(=O)NCc4c(SC)cc(C)[nH]c4=O)c(C)c3O2)CC1` (stereo partly drawn) [Compound 28, 2-(trans-4-((2-methoxyethyl)(methyl)amino)cyclohexyl)-7-(6-methoxypyridin-3-yl)-2,4-dimethyl-N-((6-methyl-4-(methylthio)-2-oxo-1,2-dihydropyridin-3-yl)methyl)benzo[d][1,3]dioxole-5-carboxamide] as the molecule, how does the IC50 read?
A: ≤ 0.01 µM

Q: `CSc1cc(C)[nH]c(=O)c1CNC(=O)c1cc(-c2ccc(N3C[C@@H](C)O[C@@H](C)C3)nc2)c2c(c1C)OC(C)([C@H]1CC[C@H](N(C)C(=O)C(F)(F)F)CC1)O2` (stereo partly drawn) [Compound 115, 7-(6-((2S,6R)-2,6-dimethylmorpholino)pyridin-3-yl)-2,4-dimethyl-N-((6-methyl-4-(methylthio)-2-oxo-1,2-dihydropyridin-3-yl)methyl)-2-(trans-4-(2,2,2-trifluoro-N-methylacetamido)cyclohexyl)benzo[d][1,3]dioxole-5-carboxamide] was tested. Which IC50 did it give?
A: 0.01 to 0.1 µM
